From patent publication US11976057B2, “MrgX2 antagonists” (GlaxoSmithKline Intellectual Property Development Limited, priority 2020, dated 2024)

Target: T1, human MRGPRX2 (Homo sapiens, UniProt Q96LB1)
T1 sequence (Q96LB1 1-330): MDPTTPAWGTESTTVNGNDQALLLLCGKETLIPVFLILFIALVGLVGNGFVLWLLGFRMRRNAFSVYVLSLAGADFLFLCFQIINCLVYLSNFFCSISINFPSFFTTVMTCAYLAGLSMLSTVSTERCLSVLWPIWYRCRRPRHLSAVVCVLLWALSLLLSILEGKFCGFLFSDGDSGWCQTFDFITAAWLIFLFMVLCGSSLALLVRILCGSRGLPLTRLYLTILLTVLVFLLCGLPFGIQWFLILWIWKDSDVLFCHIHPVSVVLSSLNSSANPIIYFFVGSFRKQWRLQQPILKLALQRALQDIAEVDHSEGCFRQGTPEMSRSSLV
Assay: Ca2+ mobilization assay (FLIPR TETRA): inhibition of Cortistatin-14 mediated MRGPRX2 activation

SMILES	IC50 [µM]	pIC50 ([…], agonist Cortistatin-14 at 4×EC50, 30 min incubation at 37° C., mean of a minimum of 2 experiments)
C[C@@H](C(=O)Nc1ccc(Oc2ccc(F)cc2F)cn1)N1CCC(F)(F)[C@@H](c2cc[n+]([O-])cc2)C1 [Example 117, 4-((S)-1-((S)-1-((5-(2,4-difluorophenoxy)pyridin-2-yl)amino)-1-oxopropan-2-yl)-4,4-difluoropiperidin-3-yl)pyridine 1-oxide]	≤ 0.01	–
C[C@@H](C(=O)Nc1cnc(Oc2ccc(F)cc2F)cn1)[C@H]1CCC[C@@H](c2ccc(=O)[nH]c2)C1 [Example 286, (R)-N-(5-(2,4-difluorophenoxy)pyrazin-2-yl)-2-((1S,3R)-3-(6-oxo-1,6-dihydropyridin-3-yl)cyclohexyl)propanamide]	≤ 0.01	–
COc1ccc(NC(=O)C(C)N2CCC(F)(F)[C@@H](c3ccc(=O)[nH]c3)C2)nc1 (stereo partly drawn) [Example 44, 2-((S)-4,4-difluoro-3-(6-oxo-1,6-dihydropyridin-3-yl)piperidin-1-yl)-N-(5-methoxypyridin-2-yl)propanamide]	3.16 to 31.6	–
C[C@@H](C(=O)Nc1ccc(Oc2ccc(F)cc2F)cn1)N1CCC(F)(F)[C@@H](c2cc[n+]([O-])c(CO)c2)C1 [Example 255]	≤ 0.01	–
C[C@@H](C(=O)Nc1ccc(Oc2ccc(F)cc2)cn1)N1CCC(F)(F)[C@@H](c2c[nH]c(=O)c(CN)c2)C1 [Example 204, (S)-2-((S)-3-(5-(aminomethyl)-6-oxo-1,6-dihydropyridin-3-yl)-4,4-difluoropiperidin-1-yl)-N-(5-(4-fluorophenoxy)pyridin-2-yl)propanamide]	≤ 0.01	–
C[C@@H](C(=O)Nc1ccc(Cl)cn1)N1CCC(F)(F)[C@@H](c2cc[n+]([O-])cc2)C1 [Example 112, 4-((S)-1-((S)-1-((5-chloropyridin-2-yl)amino)-1-oxopropan-2-yl)-4,4-difluoropiperidin-3-yl)pyridine 1-oxide]	0.1 to 3.16	–
C[C@@H](C(=O)Nc1cnc(Oc2ccc(F)cc2F)cn1)N1CCC(F)(F)[C@@H](c2cc[n+]([O-])cc2)C1 [Example 132, 4-((S)-1-((S)-1-((5-(2,4-difluorophenoxy)pyrazin-2-yl)amino)-1-oxopropan-2-yl)-4,4-difluoropiperidin-3-yl)pyridine 1-oxide]	≤ 0.01	8.6
C[C@@H](C(=O)Nc1ccc(Oc2ncc(F)cc2F)cn1)[C@H]1CCC(F)(F)[C@@H](c2ccc(=O)[nH]c2)C1 [Example 281, (R)-2-((1S,3R)-4,4-difluoro-3-(6-oxo-1,6-dihydropyridin-3-yl)cyclohexyl)-N-(5-((3,5-difluoropyridin-2-yl)oxy)pyridin-2-yl)propanamide]	≤ 0.01	–
C[C@@H](C(=O)Nc1ccc(OCC2CC2)cn1)N1CCC(F)(F)[C@@H](c2c[nH]c(=O)cn2)C1 [Example 133, (S)—N-(5-(cyclopropylmethoxy)pyridin-2-yl)-2-((R)-4,4-difluoro-3-(5-oxo-4,5-dihydropyrazin-2-yl)piperidin-1-yl)propanamide]	≤ 0.01	–
CC(C(=O)Nc1ccc(C(=O)OC2CC2)cn1)N1CCC(F)(F)[C@@H](c2ccc(=O)[nH]c2)C1 (stereo partly drawn) [Example 83, cyclopropyl 6-(2-((S)-4,4-difluoro-3-(6-oxo-1,6-dihydropyridin-3-yl)piperidin-1-yl)propanamido) nicotinate]	0.1 to 3.16	–
CC(C)Oc1ccc(NC(=O)C(C)N2CCC(F)(F)[C@@H](c3ccc(=O)[nH]c3)C2)nc1 (stereo partly drawn) [Example 26, 2-((S)-4,4-difluoro-3-(6-oxo-1,6-dihydropyridin-3-yl)piperidin-1-yl)-N-(5-isopropoxy-pyridin-2-yl)propanamide]	0.1 to 3.16	–
C[C@@H](C(=O)Nc1ccc(Oc2ccc(F)cn2)cn1)N1CCC(F)(F)[C@@H](c2c[nH]c(=O)c(CO)c2)C1 [Example 157, (S)-2-((S)-4,4-difluoro-3-(5-(hydroxymethyl)-6-oxo-1,6-dihydropyridin-3-yl)piperidin-1-yl)-N-(5-((5-fluoropyridin-2-yl)oxy)pyridin-2-yl)propanamide]	0.01 to 0.1	–
